Measurements: the OPERA property sets (Mansouri et al. 2018)
Where a SMILES comes first, the peptide text is derived from it.

SMILES | logP
CCSc1cccc2nc(N)nc(N)c12 | 2.27
O=C1C(NCCO)=C(N2CC2)C(=O)C(NCCO)=C1N1CC1 | -1.47
COc1ccc2cc(C(C)C(=O)OCCOC(C)=O)ccc2c1 (centres undefined) | 3.5
CC(=O)C(=Cc1cc(O)c(O)c([N+](=O)[O-])c1)C(C)=O | 1.21
CC1(C)Oc2ccc(C#N)cc2C(N2CCCC2=O)C1O (centres undefined) | 2.32
CC(C)Nc1[nH]cnc2ncnc1-2 | 1.38
Nc1nnnn1-c1c(Cl)cccc1Cl | 1.56
COc1cc(Cl)cc(Cl)c1O | 2.86
COC(=O)Sc1ncc(C=C(C(=O)OC)C(=O)OC)n1C | 0.49
Cc1cc(=O)[nH]nc1/C=C/c1ccc(-n2cnc3c2CCCC3)cc1 | 3.1
O=C1CN=C(c2ccc(F)cc2)c2ccccc2N1 | 2.38
CC(C)=CC1C(C(=O)OCc2cccc(C(=O)c3ccccc3)c2)C1(C)C (centres undefined) | 6.54
O=C1C=C(c2ccc(Cl)cc2)C(=O)N1c1ccc(Cl)cc1 | 3
Cc1cc2c(C)cc3oc(=O)cc(C)c3c2o1 | 3.25
CN(C)CCOC(=O)c1ccc(C(C)(C)C)cc1 | 3.94
CNc1ncnc2c1ncn2C1OC(CO)C(O)C1O (centres undefined) | -0.52
CCS(=O)(=O)n1cc(-c2ccc(Cl)cc2)c(N2CCOCC2)c1C(=O)OC | 4.2
CN1CC(O)N(C(=O)Nc2ccccc2)C1=O (centres undefined) | 1.44
Cc1cccc(C)c1-c1cnc[nH]1 | 2.38
O=C1N=C(N2CCOCC2)CN1Cc1ccccc1 | 0.5
CNC(=S)NN=C(c1cccc([N+](=O)[O-])c1)c1ccccn1 | 2.14
CCCCNCc1ccc(C)cc1 | 3.49

SMILES | logP
Cc1cccc(C)c1OCC1CN=C(N)O1 (centres undefined) | 2
CC(=O)c1cc2ccc3cccc4ccc(c1)c2c34 | 4.29
NC(=O)c1cccc(Cc2ncccn2)c1 | 0.28
CN(C)CCOC(=O)c1ccc(S(C)(=O)=O)cc1 | 0.45
COC(=O)C=CCn1cc([N+](=O)[O-])nc1C | 0.16
CC(=O)Nc1cc(NCC(C)O)c(Cl)cc1N=Nc1ccc([N+](=O)[O-])cc1Cl (centres undefined) | 4
Cc1nc2c3c(c(C(=O)N(C)C)cn2c1C)CCC(c1ccccc1)O3 (centres undefined) | 3.3
Cc1nc2c3c(c(C(=O)N(C)C)cn2c1C)CCC(c1cccs1)O3 (centres undefined) | 2.8
O=C(O)CCCCON=C(c1cccc(C(F)(F)F)c1)c1ccncn1 | 3.14
CCN(CC)c1ccc(NC(=O)N(C)OC)cc1 | 2.33
CN(c1ccc2cc3ccc4c(c3nc2c1)COCN4)S(C)(=O)=O | 1.54
COc1ccc(CCNCC(O)COc2ccc(OCc3ncc[nH]3)cc2)cc1OC (centres undefined) | 2.6
CC(C)NC(=NC#N)NS(=O)(=O)c1cnccc1NC1CCCCCCC1 | 2.58
CN(C/C=C/C#CC(C)(C)C)Cc1cccc2ccccc12 | 6
CN1CCCNCC1 | -0.4
CCc1c(C)nc2c3c(c(C(=O)N(C)C)cn12)CCC(c1ccccc1)O3 (centres undefined) | 3.2
CC1CCC2CC(=O)N(CCc3ccccc3)C3OC4(C)CCC1C23OO4 (centres undefined) | 3.94
CCCC(=NOCC)C1=C(O)CC(c2ccccc2)(c2ccccc2)OC1=O | 4.75
CC(=O)NC(CCCNC(=O)N(CCCl)N=O)C(=O)NCc1ccccc1 (centres undefined) | 1.33
O=c1cc(CCl)oc(Cl)c1O | 0.95
CC(C)(C)c1ccc(C(CCN2CCCC2)c2ccccc2)cc1 (centres undefined) | 6.72
CC(C)CC(NC(=O)C(CC(C)C)NC(=O)C(NC(=O)C(C)N)C(C)C)C(=O)O (centres undefined) (H-AVLL-OH; configuration not given here) | -1.74

SMILES | logP
CCC(C)(C)c1ccc(OCC2CN=C(N)O2)cc1 (centres undefined) | 3.69
CC(C)(C)NCC(COc1nsnc1N1CCOCC1)OC(=O)C1CC1 (centres undefined) | 3.54
CC(C)C(Nc1ccc([N+](=O)[O-])cc1[N+](=O)[O-])C(=O)O (centres undefined) | 2.88
C[N+](C)([O-])CCCc1ccccc1 | -0.04
CCCc1cccc(CNc2[nH]cnc3ncnc2-3)c1 | 3.53
Cc1c(O)c(=O)ccn1CCCO | -0.88
CCOc1cc2ncnc(Nc3cc(F)cc(C(F)(F)F)c3)c2cc1OCC | 5.49
OC(CNC1CCCC1)CON=C(C1CC1)C1CC1 (centres undefined) | 2.46
Cc1ccc(CO)c(C=NNC(=O)c2ccccc2)c1O | 3.01
COc1ccc(C2Cc3cc(OC(=O)C(C)(C)C)ccc3N(CCN(C)C)C(=O)C2OC(C)=O)cc1 (centres undefined) | 4.9
COc1cc2ncnc(Nc3cccc(Cl)c3)c2cc1OC | 3.51
CCCC(=NOCC)C1=C(O)CC2(CCC(CC)CC2)OC1=O (centres undefined) | 4.47
CC(C)CCCNc1[nH]cnc2ncnc1-2 | 3.06
C=CCN(N=O)C(=O)N(CCC)CCCCC(NC(C)=O)C(=O)NCc1ccccc1 (centres undefined) | 2.11
CC(SSc1ncc[nH]1)c1ccccc1 (centres undefined) | 3.39
Cc1cccc(CNc2[nH]cnc3ncnc2-3)c1 | 2.62
O=C(O)Cc1ccccc1Nc1cc(Cl)cc(Cl)c1 | 5.07
Cc1ccc(OCC2CN=C(N)O2)cc1C (centres undefined) | 2.1
O=C(Nc1ccccc1C(=O)O)c1ccccc1 | 3.54
CC(C)SCc1cc(=O)c(O)co1 | 1.17
